The text below walks through data of ChEMBL document CHEMBL3272053, “(exo, exo)-2-Aryltropane-3-carboxylic esters, hypoglycemic agents with accompanying analgesic activity” (J Med Chem, 1978).

In data set [1] the test system is Rattus norvegicus. The data set is described as follows: Hypoglycemic activity in glucose loaded Sprague-Dawley rat assessed as reduction of blood glucose level at 100 mg/kg, po after 30 mins relative to control. In kind it is functional. Details: scale not given: the % may be the effect or the level left.
Data set [2] has as its system Rattus norvegicus. The data set is described as follows: Hypoglycemic activity in glucose loaded Sprague-Dawley rat assessed as reduction of blood glucose level at 100 mg/kg, po measured at 1.5 to 2 hrs. In kind it is functional, organism-based. Details: dose 100 mg/kg.
Data set [3] deals with Rattus norvegicus. The data set can be described thus: Hypoglycemic activity in glucose loaded Sprague-Dawley rat assessed as reduction of blood glucose level at 100 mg/kg, po measured at 1 hr. Type of data set: functional, organism-based. Details: dose 100 mg/kg.
In data set [4] the test system is Rattus norvegicus. The data set can be described thus: Hypoglycemic activity in glucose/glycogen loaded Sprague-Dawley rat assessed as reduction of blood glucose level at 87 mg/kg, po. The arrangement: dose 87 mg/kg. Type of data set: functional, organism-based.
The test system of data set [5] is Mus musculus. The data set is described as follows: Analgesic activity in po dosed Swiss-Webster mouse assessed as reduction of acetylcholine-induced writhing. In kind it is functional. (An intraperitoneal irritant provokes the stretching counted in writhing tests.)
In data set [6] the test system is Rattus norvegicus. The data set is described as follows: Narcotic analgesic activity in po dosed fasted Sprague-Dawley rat measured at 60 mins by D'Amour-Smith tail-flick test. Type of data set: functional. The settings on record: Rattus norvegicus, Sprague-Dawley, Tail, po, 1 h; read-out: ED50. For orientation: In hot-plate and tail-flick tests a longer latency is read as antinociception.

In data set [7] the test system is Mus musculus. The data set can be described thus: Analgesic activity in sc dosed Swiss-Webster mouse assessed as reduction of acetylcholine-induced writhing. To be noted: Mus musculus, Swiss-Webster, sc; read-out: ED50. Type of data set: functional.
Data set [8] relates to Rattus norvegicus. The data set can be described thus: Analgesic activity in po dosed rat assessed as reduction of intraarterial bradykinin-induced pain response measured up to 120 mins. Type of data set: functional. To be noted: 2 h.
Data set [9] deals with Rattus norvegicus. The data set can be described thus: Toxicity in Sprague-Dawley rat assessed as tremor at 30 mg/kg, sc. Type of data set: organism-based. The arrangement: dose 30 mg/kg, route subcutaneous. To be noted: in vivo.
The test system of data set [10] is Rattus norvegicus. The data set can be described thus: Narcotic antagonist activity in fed Sprague-Dawley rat assessed as decrease in phenazocine-induced analgesic activity at 1 mg/kg, sc. Type of data set: functional, organism-based. Details: dose 1 mg/kg.
The subject of data set [11] is Rattus norvegicus. The data set is described as follows: Narcotic antagonist activity in fed Sprague-Dawley rat assessed as decrease in phenazocine-induced analgesic activity at 80 mg/kg, sc. Type of data set: functional.
The subject of data set [12] is Rattus norvegicus. The data set can be described thus: Toxicity in Sprague-Dawley rat assessed as convulsion at 120 mg/kg, sc. Type of data set: organism-based. The arrangement: dose 120 mg/kg, route subcutaneous. To be noted: in vivo.
Data set [13] deals with Rattus norvegicus. The data set can be described thus: Narcotic analgesic activity in fed Sprague-Dawley rat at 120 mg/kg, sc measured at 30 mins by D'Amour-Smith tail-flick test. In kind it is functional. The settings on record: route subcutaneous.
Data set [14] relates to Rattus norvegicus. The data set is described as follows: Hypoglycemic activity in Sprague-Dawley rat assessed as reduction of blood glucose level at 87 mg/kg, po by glucagon-impaired glucose disposal test relative to control. Type of data set: functional. Details: scale not given: the % may be the effect or the level left.
The subject of data set [15] is Rattus norvegicus. The data set is described as follows: Hypoglycemic activity in Sprague-Dawley rat assessed as reduction of blood glucose level at 100 mg/kg, po by glucagon-impaired glucose disposal test in presence of (exo,endo)-methyl 8-methyl-2-phenyl-8-azabicyclo[3.2.1]octane-3-carboxylate. Type of data set: functional, organism-based. The arrangement: dose 100 mg/kg.

Data set [16] deals with Rattus norvegicus. The data set can be described thus: Hypoglycemic activity in glucose loaded Sprague-Dawley rat assessed as reduction of glucose level per 100 mL of blood at 100 mg/kg, po measured at 2 hrs (reference value: 104 +/- 4 mg/100 mL). In kind it is functional.
Data set [17] deals with Rattus norvegicus. The data set is described as follows: Hypoglycemic activity in glucose/glycogen loaded Sprague-Dawley rat assessed as reduction of blood glucose level at 100 mg/kg, po measured at 1.5 hrs relative to control. The arrangement: scale not given: the % may be the effect or the level left. Type of data set: functional.
Data set [18] has as its system Rattus norvegicus. The data set is described as follows: Hypoglycemic activity in Sprague-Dawley rat assessed as reduction of blood glucose level at 100 mg/kg, po by glucagon-impaired glucose disposal test in presence of opioid antagonist nalorphine. In kind it is functional, organism-based. Details: dose 100 mg/kg.
The test system of data set [19] is Rattus norvegicus. The data set is described as follows: Hypoglycemic activity in glucose loaded Sprague-Dawley rat assessed as reduction of blood glucose level at 100 mg/kg, po measured at 1 hr relative to control. Details: scale not given: the % may be the effect or the level left. Type of data set: functional.
Data set [20] has as its system Rattus norvegicus. The data set can be described thus: Narcotic analgesic activity in fasted Sprague-Dawley rat at 240 mg/kg, po measured within 15 mins in presence of (exo,endo)-methyl 8-methyl-2-phenyl-8-azabicyclo[3.2.1]octane-3-carboxylate. Type of data set: functional, organism-based. Details: dose 240 mg/kg.
Data set [21] concerns Rattus norvegicus. The data set is described as follows: Toxicity in Sprague-Dawley rat at 240 mg/kg, po. Type of data set: organism-based. Details: dose 240 mg/kg, route oral. The settings on record: in vivo.
For data set [22], the system named is Rattus norvegicus. The data set can be described thus: Hypoglycemic activity in fasted Sprague-Dawley rat assessed as reduction of blood glucose level at 100 mg/kg, po measured at 1 hr relative to control. Details: scale not given: the % may be the effect or the level left. In kind it is functional.
Data set [23] has as its system Rattus norvegicus. The data set is described as follows: Hypoglycemic activity in glucose/glycogen loaded Sprague-Dawley rat assessed as reduction of blood glucose level at 100 mg/kg, po measured at 1 hr relative to control. Type of data set: functional. Details: scale not given: the % may be the effect or the level left.
Data set [24] deals with Rattus norvegicus. The data set can be described thus: Analgesic activity in po dosed rat assessed as reduction of intraarterial bradykinin-induced pain response. In kind it is functional.
A short description of data set [25]: Drug metabolism in glucose loaded Sprague-Dawley rat urine assessed as formation of (7)- (exo,exo)-methyl 2-(thiophen-2-yl)-8-azabicyclo[3.2.1]octane-3-carboxylate hydrochloride at 20 mg, po administered 3 to 6 hrs measured for 24 hrs by TLC/mass spectrographic analysis. Type of data set: ADME, organism-based. To be noted: in vivo.
For data set [26], the system named is Rattus norvegicus. The data set is described as follows: Hypoglycemic activity in fasted Sprague-Dawley rat assessed as reduction of blood glucose level at 100 mg/kg, po measured at 0.5 hrs relative to control. The arrangement: scale not given: the % may be the effect or the level left. Type of data set: functional.
The test system of data set [27] is Rattus norvegicus. The data set is described as follows: Hypoglycemic activity in Sprague-Dawley rat assessed as reduction of blood glucose level at 100 mg/kg, po by glucagon-impaired glucose disposal test relative to control. Type of data set: functional. Details: scale not given: the % may be the effect or the level left.
Data set [28] concerns Rattus norvegicus. The data set can be described thus: Hypoglycemic activity in glucose loaded Sprague-Dawley rat assessed as reduction of blood glucose level at 100 mg/kg, po measured at 1.5 hrs relative to control. In kind it is functional. Details: scale not given: the % may be the effect or the level left.
The test system of data set [29] is Rattus norvegicus. The data set can be described thus: Hypoglycemic activity in fasted Sprague-Dawley rat assessed as reduction of blood glucose level at 100 mg/kg, po measured at 1.5 hrs relative to control. In kind it is functional. Details: scale not given: the % may be the effect or the level left.
The subject of data set [30] is Rattus norvegicus. The data set can be described thus: Narcotic analgesic activity in fasted Sprague-Dawley rat at 240 mg/kg, po measured at 15 mins by D'Amour-Smith tail-flick test relative to control. In kind it is functional.
For data set [31], the system named is Rattus norvegicus. The data set can be described thus: Hypoglycemic activity in fasted Sprague-Dawley rat assessed as reduction of blood glucose level at 100 mg/kg, po measured at 2 hrs relative to control. Details: scale not given: the % may be the effect or the level left. Type of data set: functional.
Data set [32] deals with Rattus norvegicus. The data set can be described thus: Hypoglycemic activity in glucose loaded Sprague-Dawley rat assessed as reduction of blood glucose level at 100 mg/kg, po measured at 0.5 hrs relative to control. Type of data set: functional. The arrangement: scale not given: the % may be the effect or the level left.
The test system of data set [33] is Rattus norvegicus. The data set can be described thus: Hypoglycemic activity in glucose/glycogen loaded Sprague-Dawley rat assessed as reduction of glucose level per 100 mL of blood at 100 mg/kg, po measured at 2 hrs (reference value: 110 +/- 10 mg/100 mL). Type of data set: functional.
Data set [34] relates to Rattus norvegicus. The data set is described as follows: Hypoglycemic activity in Sprague-Dawley rat assessed as reduction of blood glucose level at 100 mg/kg, po by glucagon-impaired glucose disposal test in presence of microsomal enzyme inhibitor SKF 525-A. Details: dose 100 mg/kg. Type of data set: functional, organism-based.
Data set [35] deals with Rattus norvegicus. The data set is described as follows: Hypoglycemic activity in glucose/glycogen loaded Sprague-Dawley rat assessed as reduction of blood glucose level at 100 mg/kg, po measured at 0.5 hrs relative to control. The arrangement: scale not given: the % may be the effect or the level left. Type of data set: functional.

Activity calls are given as the source filed them. The rule behind the calls is not given here.

Consider `COC(=O)[C@H]1C[C@H]2CC[C@@H]3[C@H]1c1cc(O)ccc1CN23`, for which the Activity in the data set on Rattus norvegicus [1] is recorded as 33%. Further, the outcome in the data set on Rattus norvegicus [2] and with Rattus norvegicus [3] was inactive.
By ED50 is commonly meant the dose at which the effect has come halfway, by size or by number of responders. On to `COC(=O)[C@H]1CCCN(C)[C@H]1c1cccs1` (relative stereo), for which the result in the data set with Rattus norvegicus [4] was inactive. Besides, the ED50 with Mus musculus [5] is 11 mg/kg; in the data set with Rattus norvegicus [6], 112 mg/kg; in the data set on Mus musculus [7], 3.8 mg/kg; in the data set on Rattus norvegicus [8] it was 111 mg/kg.
Consider `CC(=O)[C@H]1C[C@H]2CC[C@H]([C@H]1c1ccccc1)N2C.Cl`, for which the Activity result in the data set with Rattus norvegicus [9] was “Toxic”; in the data set with Rattus norvegicus [12], “Toxic”; in the data set with Rattus norvegicus [13], <20%; in the data set with Rattus norvegicus [14], 32%. The outcome in the data set with Rattus norvegicus [10] and in the data set with Rattus norvegicus [11] was Active. For the same compound, the median effective dose (ED50) with Mus musculus [7] was determined as 7 mg/kg.
On to `CCCCCN1[C@@H]2CC[C@@H]1[C@@H](c1cccs1)[C@@H](C(=O)OC)C2.CS(=O)(=O)O`, for which the outcome in the data set on Rattus norvegicus [15] and in the data set with Rattus norvegicus [18] was Active. Further, the Activity is 76 mg/kg in the data set with Rattus norvegicus [16]; 52% with Rattus norvegicus [17]; 61% in the data set on Rattus norvegicus [19]; “Non-toxic” in the data set with Rattus norvegicus [21]; 41% in the data set with Rattus norvegicus [22]; 60% in the data set with Rattus norvegicus [23]. Moreover, the Activity is given as 42% with Rattus norvegicus [26]; 60% in the data set on Rattus norvegicus [27]; 33% in the data set with Rattus norvegicus [28]; 39% with Rattus norvegicus [29]; 71% in the data set with Rattus norvegicus [30]; 33% in the data set with Rattus norvegicus [31]. Moreover, the Activity was found to be 67% in the data set on Rattus norvegicus [32], 77 mg/kg in the data set with Rattus norvegicus [33] and 60% with Rattus norvegicus [35]. The ED50 in the data set on Mus musculus [5] was found to be 57 mg/kg; in the data set with Rattus norvegicus [24] it was 17 mg/kg. Besides, the result in the data set with Rattus norvegicus [20] and with Rattus norvegicus [34] was inactive. In data set [25], the Drug metabolism result was “metabolite_detected”.
